Assay results taken from PubChem BioAssay AID328 (DTP/NCI, 2004).
Values joined by “and” are separate entries in the source; they are usually repeats but may differ in a detail not shown here. Equal values may be shown once. Toxic doses and inconclusive results are not listed.

Test system: BDF1 mice, P388 leukemia ip, median survival T/C
Experiment: NCI In Vivo Anticancer Drug Screen. Data for tumor model P388 Leukemia (intraperitoneal) in B6D2F1 (BDF1) mice
Conditions: endpoint: median survival time, higher = longer survival
Procedure, shortened: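 Reported as T/C, where T is the survival measurement in dosed animals and C the same measurement in vehicle controls.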

[1] = dose: 2.0 mg/kg/injection, schedule: Q01DX009 (ip), vehicle: Klucel (hydroxypropylcellulose) (HPC)
[2] = dose: 100.0 mg/kg/injection, schedule: Q04DX003 (ip), vehicle: saline
[3] = dose: 200.0 mg/kg/injection, schedule: Q04DX003 (ip), vehicle: saline

`CCCCCCN(CCCCCC)P(=O)(N1CC1)N1CC1` was tested, and the T/C (dose: 14.0 mg/kg/injection, schedule: Q04DX003 (ip), vehicle: saline) was 95 % of control, the T/C (dose: 21.0 mg/kg/injection, schedule: Q04DX003 (ip), vehicle: saline) was 104 % of control and the T/C (dose: 33.0 mg/kg/injection, schedule: Q04DX003 (ip), vehicle: saline with Tween-80) was 100 % of control and 118 % of control. For the same compound, the T/C (dose: 50.0 mg/kg/injection, schedule: Q04DX003 (ip), vehicle: saline with Tween-80) was 150 % of control and the T/C (dose: 75.0 mg/kg/injection, schedule: Q04DX003 (ip), vehicle: saline with Tween-80) was 181 % of control.

For `CC1(C)CC(=O)C(C(=O)Nc2ccc(Cl)cc2)C(=O)C1`, the T/C (dose: 50.0 mg/kg/injection, schedule: Q01DX009 (ip), vehicle: saline with Tween-80) was 98 % of control, the T/C (dose: 100.0 mg/kg/injection, schedule: Q01DX009 (ip), vehicle: saline with Tween-80) was 93 % of control and the T/C (dose: 200.0 mg/kg/injection, schedule: Q01DX009 (ip), vehicle: saline with Tween-80) was 89 % of control.

`COc1ccc(C(SCC(N)C(=O)O)(c2ccccc2)c2ccccc2)cc1` (centres undefined) was tested, and the T/C (dose: 1.3 mg/kg/injection, schedule: Q01DX009 (ip), vehicle: Klucel (hydroxypropylcellulose) (HPC)) was 117 % of control, the T/C [1] was 113 % of control and the T/C (dose: 4.12 mg/kg/injection, schedule: Q01DX009 (ip), vehicle: Klucel (hydroxypropylcellulose) (HPC)) was 155 % of control. The T/C (dose: 6.25 mg/kg/injection, schedule: Q01DX009 (ip), vehicle: Klucel (hydroxypropylcellulose) (HPC)) was 160 % of control and 168 % of control and 175 % of control, the T/C (dose: 12.5 mg/kg/injection, schedule: Q01DX009 (ip), vehicle: Klucel (hydroxypropylcellulose) (HPC)) was 200 % of control and the T/C (dose: 25.0 mg/kg/injection, schedule: Q01DX009 (ip), vehicle: Klucel (hydroxypropylcellulose) (HPC)) was 250 % of control. The T/C (dose: 25.0 mg/kg/injection, schedule: Q04DX003 (ip), vehicle: Klucel (hydroxypropylcellulose) (HPC)) was 155 % of control, the T/C (dose: 33.0 mg/kg/injection, schedule: Q04DX003 (ip), vehicle: Klucel (hydroxypropylcellulose) (HPC)) was 154 % of control and the T/C (dose: 50.0 mg/kg/injection, schedule: Q01DX009 (ip), vehicle: Klucel (hydroxypropylcellulose) (HPC)) was 105 % of control. For the same compound, the T/C (dose: 50.0 mg/kg/injection, schedule: Q04DX003 (ip), vehicle: Klucel (hydroxypropylcellulose) (HPC)) was 170 % of control and 185 % of control, the T/C (dose: 66.0 mg/kg/injection, schedule: Q04DX003 (ip), vehicle: Klucel (hydroxypropylcellulose) (HPC)) was 272 % of control and the T/C (dose: 100.0 mg/kg/injection, schedule: Q04DX003 (ip), vehicle: Klucel (hydroxypropylcellulose) (HPC)) was 240 % of control and 205 % of control.

With `O=P(N1CC1)(N1CC1)N1CCc2ccccc21` the T/C (dose: 9.0 mg/kg/injection, schedule: Q01DX009 (ip), vehicle: saline) was 91 % of control, the T/C (dose: 13.0 mg/kg/injection, schedule: Q01DX009 (ip), vehicle: saline) was 104 % of control and the T/C (dose: 20.0 mg/kg/injection, schedule: Q01DX009 (ip), vehicle: saline) was 104 % of control. For the same compound, the T/C (dose: 30.0 mg/kg/injection, schedule: Q04DX003 (ip), vehicle: saline) was 114 % of control, the T/C (dose: 33.0 mg/kg/injection, schedule: Q01DX009 (ip), vehicle: saline) was 157 % of control and the T/C (dose: 44.0 mg/kg/injection, schedule: Q04DX003 (ip), vehicle: saline) was 117 % of control and 119 % of control. For the same compound, the T/C (dose: 50.0 mg/kg/injection, schedule: Q01DX009 (ip), vehicle: saline) was 166 % of control and 173 % of control, the T/C (dose: 75.0 mg/kg/injection, schedule: Q01DX009 (ip), vehicle: saline) was 176 % of control and the T/C [2] was 170 % of control and 176 % of control. The T/C (dose: 150.0 mg/kg/injection, schedule: Q04DX003 (ip), vehicle: saline) was 255 % of control and 195 % of control and the T/C [3] was 96 % of control.

`C(#CCN1CCOCC1)CCCN1CCOCC1` was tested, and the T/C [2] was 95 % of control, the T/C [3] was 100 % of control and the T/C (dose: 400.0 mg/kg/injection, schedule: Q04DX003 (ip), vehicle: saline) was 100 % of control.

With `C[n+]1ccc(Nc2ccc(NC(=O)c3ccc(Nc4cc[n+](C)c5ccc(N)cc45)cc3)cc2)cc1` the T/C (dose: 1.0 mg/kg/injection, schedule: Q01DX009 (ip), vehicle: Klucel (hydroxypropylcellulose) (HPC)) was 211 % of control, the T/C [1] was 170 % of control and 195 % of control and the T/C (dose: 3.24 mg/kg/injection, schedule: Q04DX003 (ip), vehicle: water) was 173 % of control. The T/C (dose: 4.0 mg/kg/injection, schedule: Q01DX009 (ip), vehicle: Klucel (hydroxypropylcellulose) (HPC)) was 243 % of control and 250 % of control, the T/C (dose: 4.32 mg/kg/injection, schedule: Q01DX009 (ip), vehicle: water) was 254 % of control and the T/C (dose: 5.4 mg/kg/injection, schedule: Q04DX003 (ip), vehicle: water) was 180 % of control. For the same compound, the T/C (dose: 7.2 mg/kg/injection, schedule: Q01DX009 (ip), vehicle: water) was 261 % of control, the T/C (dose: 8.0 mg/kg/injection, schedule: Q01DX009 (ip), vehicle: Klucel (hydroxypropylcellulose) (HPC)) was 244 % of control and 250 % of control and the T/C (dose: 9.0 mg/kg/injection, schedule: Q04DX003 (ip), vehicle: water) was 220 % of control. The T/C (dose: 15.0 mg/kg/injection, schedule: Q04DX003 (ip), vehicle: water) was 103 % of control.
